Reference: patent US20220090083A1, “TARGETING EGLN1 IN CANCER” (THE BROAD INSTITUTE, INC., priority 2018, published 2022)
pIC50: −log10 of the molar value.

How the values were obtained:
[1] = test system: ES2; test: CellTiter-Glo viability assay, ES2; format: cell-based, human; settings: for pIC50: Homo sapiens, ES-2, ES2, read-out: IC50 cellular viability (CellTiter-Glo)
Procedure: (§1) CellTiter-Glo (CTG) viability assays were performed per the manufacturer's instructions. Briefly, 5,000-10,000 cells were seeded per well in a 96 well plate then treated with either DMSO or EGLN1 inhibitor in doses indicated. […] Data presented are the average of three technical replicates.

[2] = test system: ES2 HIF1A knockout; test: Proliferation assay, ES2 HIF1A knockout cells; format: cell-based, human
Description: (§9) Data presented are the average of three technical replicate wells when available, excluding wells where there were no live cells to passage. Data are representative of two independent experiments.

[3] = test system: OVISE; test: Long term proliferation assay, OVISE; format: cell-based, human; settings: for long term proliferation: OVISE, dose-dependent
Description: as §9

[4] = test system: tumors formed from ES2 with HIF1A KO; test: Microdevice delivery into ES2 HIF1A KO tumors, immunohistochemistry; format: in vivo, mice; settings: local microdevice delivery, 48 hours
Procedure: (§2) Female Athymic^Nu/Nu mice (8-10 weeks old) were used, were obtained from Jackson Laboratories and had access to food and water in appropriate housing conditions. All animal procedures performed at the Broad Institute were approved by the Institutional Animal Care and Use Committee (IACUC) and according to institutional regulations.
(§3) Devices were manufactured as previously described (42). Briefly, microscale devices at diameter […] and length 3 mm were manufactured and pure powder compounds were formulated in 50% PEG. Mice were subcutaneously delivered ovarian cancer cells and tumors were allowed to grow to 1 cm^2. Mice were anesthetized during implantation using 1% isoflurane. A 19-guage spinal biopsy needle (Angiotech) was inserted into the tumor and served as the location for the device to be implanted.
(§4) Immunohistochemistry was performed on 4 μm serial sections from formalin-fixed, paraffin-embedded (FFPE) tumor tissues. The samples were deparaffinized, rehydrated, and pretreated for antigen retrieval by microwave treatment. Immunostaining was done using cell proliferation marker Ki67 and cleaved caspase 3 (CCE) at the Koch Institute Microscopy Core Facility.
(§5) By inserting this microdevice directly into the tumor, the effect of FG-4592, Bay 85-3934 and VH298 in tumors was assessed in vivo. Specifically, ES2 cells were implanted with intact HIF1A (ES2) or HIF1A knockout (ES2 HIF1A KO) in immunodeficient mice and the tumors were allowed to grow to 1 cm^2 before implanting a microdevice containing the EGLN1 inhibitor FG-4592 and VHL inhibitor VH298. Following implantation, the tumors were collected after 48 hours and the tumors were sectioned and stained for proliferation with an antibody against Ki-67, a cellular marker for proliferating cells or Cleaved Caspase-3, a cellular marker for apoptosis.

[5] = test system: TOV112D; test: Colony formation assay in hypoxia, TOV112D; format: cell-based, human; settings: 5% oxygen
Description: Data are representative of three independent experiments.

[6] = test system: EGLN1-dependent cells; test: CellTiter-Glo viability assay over 5 days; format: cell-based, human; settings: treated over 5 days
Procedure: CellTiter-Glo (CTG) viability assays were performed per the manufacturer's instructions. Briefly, 5,000-10,000 cells were seeded per well in a 96 well plate then treated with either DMSO or EGLN1 inhibitor in doses indicated. Following 3-6 days treatment (retreated at day 4) CTG compound was added and viability was measured. Data presented are the average of three technical replicates.

[7] = test system: sensitive cell lines (EGLN1-dependent); settings: up to 30 days, p<0.01
Procedure: Non-Cas9 expressing cells were plated on a 12 well or 6 well plate in triplicate with varying concentrations of FG-4592. Every 3-4 days cells were trypsinized, counted using Nexcelom Cellometer, and reseeded at equal densities with the same concentrations of FG-4592, IOX2, BAY85-3934 or VH298. Data presented are the average of three technical replicate wells when available, excluding wells where there were no live cells to passage.

[8] = test system: TOV112D; test: Annexin V apoptosis by flow cytometry, TOV112D; format: cell-based, human; settings: 40 μM, 48 hours
Procedure: (§6) Flow cytometry was performed at the Broad Institute Flow Cytometry core using CFSE (5(6)-Carboxyfluorescein N-hydroxysuccinimidyl ester)—Cell Labeling Kit (Abcam ab113853) to label dividing cells with CFSE and analyzed on FL-1 Excitation(max) 492 nm, Emission(max) 517 nm. […] Dual labeling Annexin V with 7-Amino-Actinomycin (7-AAD) allowed quantification of apoptosis. Data are presented as the average of two technical replicates and are representative of three independent experiments. Data were analyzed using FlowJo data analysis.

[9] = test system: HIF1A activity; test: Hypoxia Response Element (HRE) luciferase reporter; format: cell-based, human; settings: 48 hours post-treatment, increasing dose
Procedure: The Hypoxia Response Element (HRE) was designed based on previous publications (18, 19) and was cloned with a luciferase reporter. The construct was then stably transfected to EGLN1 dependent and independent cell lines. Following transfection cells were treated with EGLN1 inhibitor for up to 6 days and luciferase activity was measured as a readout of HIF1A activity.

[10] = test system: ES2; test: Annexin V apoptosis by flow cytometry, ES2; format: cell-based, human; settings: ES2, 40 μM, 48 hours
Procedure: as §6

[11] = test system: OVISE HIF1A knockout; test: Proliferation assay, OVISE HIF1A knockout cells; format: cell-based, human; settings: 10 uM and 20 uM
Description: (§7) Data are representative of two independent experiments.
However, such depletion of HIF1A rescued EGLN1-sensitivity to FG-4592 in ES2 (FIG. 5C) and OVISE (FIG. 5D) (p<0.05) cell lines.

[12] = test system: TOV21G; test: Long term proliferation assay, TOV21G; format: cell-based, human; settings: dose-dependent
Description: as §7

[13] = test system: TOV112D; test: CellTiter-Glo viability assay, TOV112D; format: cell-based, human; settings: 48 hours, increasing dose
Procedure: as §1, with “replicates. Data are representative of three independent experiments.” for “replicates.”

[14] = test system: not EGLN1-dependent cell lines; test: Colony formation assay, not EGLN1-dependent cell lines; format: cell-based, human
Description: (§10) Media and drug were refreshed every 3-4 days for 10 days. Cells were fixed on the plate with 10% neutral buffered formalin (Thermo Fisher Scientific) and stained with 0.1% crystal violet in 10% ethanol. After plates were washed and dried, dye was extracted using 10% acetic acid. Absorbance of extracted dye samples at 595 nm was quantified using a Molecular Devices SpectraMax M5 Plate Reader. […] Data are representative of three independent experiments.

[15] = test system: TOV112D; test: CFSE proliferation by flow cytometry, TOV112D; format: cell-based, human; settings: increasing concentration, 48 hours
Procedure: (§8) Flow cytometry was performed at the Broad Institute Flow Cytometry core using CFSE (5(6)-Carboxyfluorescein N-hydroxysuccinimidyl ester)—Cell Labeling Kit (Abcam ab113853) to label dividing cells with CFSE and analyzed on FL-1 Excitation(max) 492 nm, Emission(max) 517 nm. Apoptosis was detected using PE Annexin V Apoptosis Detection Kit 1 (BD Biosciences 559763). Dual labeling Annexin V with 7-Amino-Actinomycin (7-AAD) allowed quantification of apoptosis. Data are presented as the average of two technical replicates and are representative of three independent experiments. Data were analyzed using FlowJo data analysis.

[16] = test system: ES2; test: CFSE proliferation by flow cytometry, ES2; format: cell-based, human; settings: ES2, increasing concentration, 48 hours
Procedure: as §8

[17] = test system: ES2; test: Long term proliferation assay, ES2; format: cell-based, human; settings: for proliferation: ES2 control sgRNA cells; for long term proliferation: ES2
Description: as §9

[18] = test system: EGLN1-dependent cell lines; test: Colony formation assay, EGLN1-dependent cell lines; format: cell-based, human
Description: as §10

[19] = test system: OVISE; test: Annexin V apoptosis by flow cytometry, OVISE; format: cell-based, human; settings: 40 μM, 48 hours
Procedure: as §6

[20] = test system: EGLN1-dependent cell lines OVTOKO, OVISE and ES2; settings: hypoxia (5% oxygen) and normoxia
Procedure: Cells were plated at a low density (250-1000 cells/well) with varying concentrations of FG-4592 (Selleck) on 24 well plates. Media and drug were refreshed every 3-4 days for 10 days. Cells were fixed on the plate with 10% neutral buffered formalin (Thermo Fisher Scientific) and stained with 0.1% crystal violet in 10% ethanol. After plates were washed and dried, dye was extracted using 10% acetic acid. Absorbance of extracted dye samples at 595 nm was quantified using a Molecular Devices SpectraMax M5 Plate Reader. […] Data are representative of three independent experiments.
To test this hypothesis, colony-forming formation assays were performed in the context of normal culture conditions (normoxia) or in a hypoxic incubator at 5% oxygen (hypoxia).

[21] = test system: OVCAR4; test: Annexin V apoptosis by flow cytometry, OVCAR4; format: cell-based, human; settings: OVCAR4, 40 μM, 48 hours
Procedure: as §6

[22] = test system: tumors formed from ES2; test: Microdevice delivery into ES2 tumors, immunohistochemistry; format: in vivo, mice; settings: ES2 (HIF1A WT) tumors, local microdevice delivery, 48 hours
Procedure: as §2, §3, §4, §5

[23] = test system: HIF1A; test: Immunoblot of HIF1A levels after inhibitor treatment; format: cell-based, human
[24] = test system: JHOC5; test: Long term proliferation assay, JHOC5; format: cell-based, human; settings: JHOC5, dose-dependent
Description: as §7

[25] = test system: OVTOKO; test: Long term proliferation assay, OVTOKO; format: cell-based, human; settings: dose-dependent
Description: as §7

[26] = test system: TOV112D; test: Long term proliferation assay, TOV112D; format: cell-based, human
Description: as §7

| SMILES | pIC50 [1] | tumor cell apoptosis (Cleaved Caspase-3 immunostaining) [4] | tumor cell proliferation (Ki-67 immunostaining) [4] | viability (CTG) [6] | colony formation [14] | colony formation [18] | tumor cell apoptosis (Cleaved Caspase-3 immunostaining) [22] | tumor cell proliferation (Ki-67 immunostaining) [22] | HIF1A levels (immunoblot) ([23]; ES2 cells) | HIF1A levels (immunoblot) ([23]; TOV112D cells) | long term proliferation [3] | long term proliferation [25] | long term proliferation [17] | also measured |
| --- | --- | --- | --- | --- | --- | --- | --- | --- | --- | --- | --- | --- | --- | --- |
| O=C(O)CNC(=O)c1nc(Cl)c2ccccc2c1O [FG-2216] | – | – | – | – | – | – | – | – | – | – | – | – | – | sensitivity of ES2 to EGLN1 inhibitors (viability) ([1]; ES2, FIG. 11D): showed sensitivity |
| Cc1nc(C(=O)NCC(=O)O)c(O)c2ccc(Oc3ccccc3)cc12 [FG-4592] | 4.30 to 4.40 | no change | no change | reduced viability in a dose-dependent manner | no effect | reduced colony formation | increased apoptosis | dramatic reduction in proliferating cells | increased HIF1A levels in a dose-dependent manner | increased HIF1A levels in a dose-dependent manner | – | – | – | proliferation ([2]; 10 uM and 20 uM): resistant to EGLN1 inhibition; proliferation ([3]; OVISE control sgRNA cells, 10 uM and 20 uM): reduced proliferation of control cells; cell viability (CellTiter-Glo) ([1]; ES2, 48 hours, increasing dose): reduced viability; colony formation, sensitivity to inhibitor [5]: Increased sensitivity to EGLN1 inhibition was not observed; long term proliferation [7]: significantly reduced long term proliferation; apoptosis (Annexin V stain) [8]: not increasing apoptosis; HIF1A activity (HRE luciferase reporter) [9]: increased in both EGLN1-dependent cell lines and cell lines not dependent on EGLN1; apoptosis (Annexin V stain) [10]: increased apoptosis; proliferation [11]: resistant to EGLN1 inhibition; long term proliferation [12]: reduced the long term proliferation; cell viability (CellTiter-Glo) [13]: no effect; cell proliferation (CFSE stain, flow cytometry) [15]: did not reduce cell proliferation; cell proliferation (CFSE stain, flow cytometry) [16]: reduced cell proliferation; proliferation ([17]; 10 uM and 20 uM): reduced proliferation of control cells; apoptosis (Annexin V stain) [19]: increased apoptosis; colony formation, sensitivity to inhibitor [20]: sensitive; apoptosis (Annexin V stain) [21]: not increasing apoptosis; long term proliferation [24]: reduced long term proliferation |
| Cc1ncsc1-c1ccc(CNC(=O)[C@@H]2C[C@@H](O)CN2C(=O)[C@@H](NC(=O)C2(C#N)CC2)C(C)(C)C)cc1 [VH298] | – | dependent on intact HIF1A | dependent on intact HIF1A | – | – | – | increased apoptosis | reduction of proliferating cells | increased HIF1A levels in a dose-dependent manner | – | reduced long term proliferation | reduced long term proliferation | substantially decreased cell proliferation | proliferation ([2]; 100 uM): resistant to VHL1 inhibition; proliferation ([17]; 100 uM): significantly reduced proliferation of control cells; proliferation [26]: slightly decreased proliferation |
| O=c1c(-n2ccnn2)c[nH]n1-c1cc(N2CCOCC2)ncn1 [Molidustat] | 4.30 to 4.40 | – | – | – | – | – | – | – | increased HIF1A levels in a dose-dependent manner | increased HIF1A levels in a dose-dependent manner | – | – | – | – |
| O=C(O)CNC(=O)c1c(O)c2ccccc2n(Cc2ccccc2)c1=O [IOX2] | – | – | – | reduced viability in a dose-dependent manner | no effect | reduced colony formation | – | – | – | – | reduced long term proliferation | reduced long term proliferation | reduced long term proliferation | – |
| COc1cccc2c1C(=O)c1c(O)c3c(c(O)c1C2=O)C[C@@](O)(C(=O)CO)C[C@@H]3O[C@H]1C[C@H](N)[C@H](O)[C@H](C)O1 [doxorubicin] | – | increased apoptosis | reduced proliferation | – | – | – | increased apoptosis | reduced proliferation | – | – | – | – | – | – |
